From patent US20240366608A1, “PHARMACEUTICAL COMBINATIONS OF SOS1 INHIBITORS FOR TREATING AND/OR PREVENTING CANCER” (Lupin Limited, priority 2021, published 2024)

Tests used:
MIA PaCa-2 xenograft = assay: In vivo efficacy, Compound 5 combined with Compound 24 of WO 2019116302, xenograft; parameters: species or system nude mice; conditions: single agent: Compound 5 50 mg/kg b.i.d.; Compound 24 of WO 2019116302 dose not given
Method: Compound 5 was tested in combination with Compound 24 of WO 2019116302 in vivo in MIA PaCa-2 xenograft model in nude mice.
20×10^6 MIA PaCa-2 cells were injected subcutaneously in the presence of PBS and Matrigel in 1:1 ratio in nude mice.

[1] = test system: MIA PaCa-2 or SW1990 pancreatic cancer cells; assay: Colony formation assay, SOS1 inhibitor combined with targeted agents; assay type: cell-based, human; conditions: 7 days of drug treatment, crystal violet absorbance at 590 nm; combined with one or more of the agents listed
Method: Compound 1, 2, 3, 3a, 3b, 4, 4a, 4b, 5, 6, 6a, 6b and 7 were tested for inhibition of colony formation potential in combination with one or more of the following agents in MIA PaCa-2 or SW1990 pancreatic cancer cells: • EGFR inhibitor: Afatinib, KRAS-G12C inhibitor: AMG 510, KRAS-G12C inhibitor: MRTX849, KRAS-G12D inhibitor: MRTX1133, ERK1/2 inhibitor: LY3214996 and BVD-523, BRAF inhibitor: Encorafenib, pan-RAF inhibitor: LXH254, PRMT5 inhibitor: compound 24 of WO 2019116302, Type I PRMT inhibitor: GSK3368715, PI3K inhibitor: BYL719, FGFR inhibitor: Nintedanib, CDK4/6 inhibitor: Abemaciclib, and other chemotherapeutic agent: Gemcitabine.
Colony formation assay: MIA PaCa-2 cells or SW1990 cells were seeded at 500 cells per well or 1500 cells/well, respectively in 48 well tissue culture plate and cells were allowed to settle overnight (16 to 20 h). On the following day, cells were treated with various concentrations of targeted agents to generate IC50 with or without increasing concentrations of SOS1 inhibitor (as depicted in the figures), and the assay plates were incubated under normal cell culture conditions. After 7 days of drug treatment, media was removed from each well and plates were washed with PBS. Cell colonies were stained with crystal violet solution for 2-5 min. Plate was then washed carefully under tap water and air dried. For quantitation, 200 μL destaining solution containing 10% Glacial acetic acid was added to each well and stained colonies were allowed to solubilize for 20-30 min on plate shaker. After solubilization, absorbance of the extracted stain was recorded in BioTek Synergy Neo U plate reader at 590 nm. Absorbance values were directly proportional to colony growth.

[2] = test system: MIA PaCa-2 human pancreatic cancer xenograft; assay: In vivo efficacy, Compound 4b combined with Afatinib or Compound 24 of WO 2019116302, xenograft; parameters: species or system nude mice; conditions: single agent: Compound 4b 15 mg/kg b.i.d.; Afatinib 12.5 mg/kg q.d.; Compound 24 of WO 2019116302 1.0 mg/kg b.i.d.
[3] = test system: MIA PaCa-2 human pancreatic cancer xenograft; assay: In vivo efficacy, Compound 7 combined with AMG 510, xenograft; parameters: species or system nude mice; conditions: single agent
From the text: MIA PaCa-2 tumor fragments were implanted subcutaneously in the right flank region of nude mice. Tumor-bearing mice were randomized once the tumors reached an average volume of ˜155-164 mm^3 (tumor volume range 66-298 mm^3).

[4] = test system: MIA PaCa-2 human pancreatic cancer xenograft; assay: In vivo efficacy, Compound 1 or 4b combined with AMG 510, xenograft; parameters: species or system nude mice; conditions: single agent; for tumor growth inhibition: 30 mg/kg b.i.d.
[5] = test system: MIA PaCa-2 human pancreatic cancer xenograft; assay: In vivo efficacy, Compound 7 combined with LXH254, xenograft; parameters: species or system nude mice; conditions: single agent: Compound 7 5 mg/kg q.d.; LXH254 50 mg/kg b.i.d.
[6] = test system: MIA PaCa-2 human pancreatic cancer xenograft; assay: In vivo efficacy, Compound 7 combined with Afatinib, Compound 24 of WO 2019116302 or Ulixertinib, xenograft; parameters: species or system nude mice; conditions: single agent, Compound 7 15 mg/kg b.i.d.

Cc1nc(N[C@H](C)c2cc(N)cc(C(F)(F)F)c2)c2cc(-c3ccc(=O)n(C)c3)c3c(c2n1)CCC3 [Compound 5, (R)-5-(4-((1-(3-amino-5-(trifluoromethyl)phenyl)ethyl)amino)-2-methyl-8,9-dihydro-7H-cyclopenta[h]quinazolin-6-yl)-1-methylpyridin-2(1H)-one]
tumor growth inhibition (MIA PaCa-2 xenograft): 59% | potentiation of activity of combination agents leading to inhibition of colony forming activity [1]: significant potentiation

Cc1nc(N[C@H](C)c2cccc(C(F)(F)C(C)(O)CO)c2F)c2cc3c(cc2n1)C(C)(C)C(=O)N3C (stereo partly drawn) [Compound 3, 4-(((R)-1-(3-((R&S)-1,1-Difluoro-2,3-dihydroxy-2-methylpropyl)-2-fluorophenyl)ethyl)amino)-2,6,8,8-tetramethyl-6,8-dihydro-7H-pyrrolo[2,3-g]quinazolin-7-one]
potentiation of activity of combination agents leading to inhibition of colony forming activity [1]: significant potentiation

Cc1nc(N[C@H](C)c2cccc(C(F)(F)C(C)(O)CO)c2F)c2cc3c(cc2n1)C(C)(C)C(=O)N3C (single isomer, unassigned) [Compound 3a]
potentiation of activity of combination agents leading to inhibition of colony forming activity [1]: significant potentiation

Nc1nc2cc(CCC3=C[C@@H](n4ccc5c(N)ncnc54)[C@H](O)[C@@H]3O)cc(F)c2cc1Cl [Compound 24 of WO 2019116302, (1S,2R,5R)-3-(2-(2-amino-3-chloro-5-fluoroquinolin-7-yl)ethyl)-5-(4-amino-7H-pyrrolo[2,3-d]pyrimidin-7-yl)cyclopent-3-ene-1,2-diol, reference compound]
tumor growth inhibition (MIA PaCa-2 xenograft): 73% | tumor growth inhibition [2]: 52%

COC1(C)C(=O)N(C)c2cc3nc(C)nc(N[C@H](C)c4cccc(C(F)(F)C(C)(C)O)c4F)c3cc21 (single isomer, unassigned) [Compound 6b]
potentiation of activity of combination agents leading to inhibition of colony forming activity [1]: significant potentiation

COC1(C)C(=O)N(C)c2cc3nc(C)nc(N[C@H](C)c4cccc(C(F)(F)C(C)(C)O)c4F)c3cc21 (mixture of isomers) [Compound 6, (R&S)-4-(((R)-1-(3-(1,1-difluoro-2-hydroxy-2-methylpropyl)-2-fluorophenyl)ethyl)amino)-6-methoxy-2,6,8-trimethyl-6,8-dihydro-7H-pyrrolo[3,2-g]quinazolin-7-one]
potentiation of activity of combination agents leading to inhibition of colony forming activity [1]: significant potentiation

COC1(C)C(=O)N(C)c2cc3c(N[C@H](C)c4cccc(C(F)(F)C(C)(C)O)c4F)nc(C)nc3cc21 (mixture of isomers) [Compound 4, (R&S)-4-(((R)-1-(3-(1,1-difluoro-2-hydroxy-2-methylpropyl)-2-fluorophenyl)ethyl)amino)-8-methoxy-2,6,8-trimethyl-6,8-dihydro-7H-pyrrolo[2,3-g]quinazolin-7-one]
potentiation of activity of combination agents leading to inhibition of colony forming activity [1]: significant potentiation

C=CC(=O)N1CCN(c2nc(=O)n(-c3c(C)ccnc3C(C)C)c3nc(-c4c(O)cccc4F)c(F)cc23)[C@@H](C)C1 [AMG 510, 4-((S)-4-acryloyl-2-methylpiperazin-1-yl)-6-fluoro-7-(2-fluoro-6-hydroxyphenyl)-1-(2-isopropyl-4-methylpyridin-3-yl)pyrido[2,3-d]pyrimidin-2(1H)-one, reference compound]
inhibition in tumor growth ([3]; AMG 510 3 mg/kg q.d.): 77.69% | tumor regression ([4]; AMG 510 10 mg/kg q.d.): 39.43±15.22%

Cc1nc(NC(C)c2cccc(C(F)(F)C(C)(C)O)c2)c2cc3c(cc2n1)C(C)(C)C(=O)N3C (single isomer, unassigned) [Compound 2, (R/S)-4-((1-(3-(1,1-difluoro-2-hydroxy-2-methylpropyl)phenyl)ethyl)amino)-2,6,8,8-tetramethyl-6,8-dihydro-7H-pyrrolo[2,3-g]quinazolin-7-one]
potentiation of activity of combination agents leading to inhibition of colony forming activity [1]: significant potentiation

CO[C@]1(C)C(=O)N(C)c2cc3c(N[C@H](C)c4cc(N)cc(C(F)(F)F)c4)nc(C)nc3cc21 [Compound 7, (S)-4-(((R)-1-(3-amino-5-(trifluoromethyl)phenyl)ethyl)amino)-8-methoxy-2,6,8-trimethyl-6,8-dihydro-7H-pyrrolo[2,3-g]quinazolin-7-one]
inhibition in tumor growth ([3]; Compound 7 5 mg/kg q.d.): 30.40% | inhibition in tumor growth ([3]; Compound 7 10 mg/kg q.d.): 43.42% | inhibition in tumor growth ([3]; Compound 7 20 mg/kg q.d.): 52.71% | inhibition in tumor growth [5]: 39.82% | inhibition in tumor growth [6]: 32.86% | potentiation of activity of combination agents leading to inhibition of colony forming activity [1]: significant potentiation

CO[C@]1(C)C(=O)N(C)c2cc3c(N[C@H](C)c4cccc(C(F)(F)C(C)(C)O)c4F)nc(C)nc3cc21 (single isomer, unassigned) [Compound 4a]
potentiation of activity of combination agents leading to inhibition of colony forming activity [1]: significant potentiation

Cc1nc(N[C@H](C)c2cccc(C(F)(F)[C@@](C)(O)CO)c2F)c2cc3c(cc2n1)C(C)(C)C(=O)N3C (single isomer, unassigned) [Compound 3b]
potentiation of activity of combination agents leading to inhibition of colony forming activity [1]: significant potentiation

Cc1ccc(NC(=O)c2ccnc(C(F)(F)F)c2)cc1-c1cc(OCCO)nc(N2CCOCC2)c1 [LXH254, N-(3-(2-(2-hydroxyethoxy)-6-morpholinopyridin-4-yl)-4-methylphenyl)-2-(trifluoromethyl)isonicotinamide, reference compound]
inhibition in tumor growth [5]: 34.96%

Cc1nc(N[C@H](C)c2cccc(C(F)(F)C(C)(C)O)c2F)c2cc3c(cc2n1)C(C)(C)C(=O)N3C [Compound 1, (R)-4-((1-(3-(1,1-Difluoro-2-hydroxy-2-methylpropyl)-2-fluorophenyl)ethyl)amino)-2,6,8,8-tetramethyl-6,8-dihydro-7H-pyrrolo[2,3-g]quinazolin-7-one]
tumor growth inhibition [4]: 63.82±8.32% | potentiation of activity of combination agents leading to inhibition of colony forming activity [1]: significant potentiation

CN(C)C/C=C/C(=O)Nc1cc2c(Nc3ccc(F)c(Cl)c3)ncnc2cc1O[C@H]1CCOC1 [Afatinib, (S,E)-N-(4-((3-chloro-4-fluorophenyl)amino)-7-((tetrahydrofuran-3-yl)oxy)quinazolin-6-yl)-4-(dimethylamino)but-2-enamide]
tumor growth inhibition [2]: 38%

COC1(C)C(=O)N(C)c2cc3c(N[C@H](C)c4cccc(C(F)(F)C(C)(C)O)c4F)nc(C)nc3cc21 (single isomer, unassigned) [Compound 4b]
tumor growth inhibition [2]: 47% | tumor growth inhibition [4]: 65.71±7.41% | potentiation of activity of combination agents leading to inhibition of colony forming activity [1]: significant potentiation

CO[C@]1(C)C(=O)N(C)c2cc3nc(C)nc(N[C@H](C)c4cccc(C(F)(F)C(C)(C)O)c4F)c3cc21 (racemic) [Compound 6a, (S/R)-4-(((R)-1-(3-(1,1-difluoro-2-hydroxy-2-methylpropyl)-2-fluorophenyl)ethyl)amino)-6-methoxy-2,6,8-trimethyl-6,8-dihydro-7H-pyrrolo[3,2-g]quinazolin-7-one]
potentiation of activity of combination agents leading to inhibition of colony forming activity [1]: significant potentiation
